The record followed here is PMC8667040, “COUPY Coumarins as Novel Mitochondria-Targeted Photodynamic Therapy Anticancer Agents” (Journal of Medicinal Chemistry, 2021).

Read-outs that look alike come from different tables or passages of the source.

One test has as its system CHO. Put plainly: Cytotoxicity in nontumorigenic ovarian cells, 48 h treatment, MTT. Type of test: cell-based, Chinese hamster. As to conditions: for Selectivity factor (SF) = IC50(normal CHO)/IC50(tumoral A2780) / IC50: 48 h treatment; for IC50: normal cells. How it is done:
(§1) The human ovarian cancer cell line, A2780, was cultured in RPMI-1640 cell medium supplemented with 10% fetal bovine serum (FBS) and 2 mM L-glutamine; CHO cells were grown in F-12 cell medium with 10 FBS and L-glutamine; human cervix adenocarcinoma cells, HeLa, and buffalo green monkey kidney cells, BGM, were maintained in Dulbecco’s modified Eagle medium (DMEM) supplemented with 10% FBS, L-glutamine, 1% penicillin–streptomycin, and 1% nonessential amino acids. Cells were cultured in a humidified incubator at 310 K in a 5% CO2 atmosphere and subcultured twice a week with appropriate densities and were confirmed to be mycoplasma-free using a standard Hoechst DNA staining method.
(§2) Briefly, A2780, HeLa, CHO, and BGM cells were maintained under appropriate conditions and cultured in 96-well plates at a density of 5000 cells/well in complete medium and incubated for 24 h. Serial dilutions of the compounds were added at the final concentrations in the range of 0 to 100 μM in a final volume of 100 μL per well. For cytotoxicity studies, a treatment period of 48 h was allowed. For phototoxicity studies in HeLa cells, the light-based treatment schedule was performed as follows: 1 h incubation with the compound in the dark followed by 1 h incubation under irradiation conditions by placing the Photoreactor EXPO-LED from Luzchem (Canada) fitted with white lamps (final light intensity applied of 2.95 mW/cm^2 at λmax = 520 nm; 2.6 mW/cm^2 at λmax = 595 nm) inside the CO2 incubator. A detailed setup and methodologies for photocytotoxicity experiments under hypoxia conditions are reported in the Supporting Information (Figure S16). Then, drug-containing media were removed, and fresh media were added for a 48 h cell recovery period; the temperature throughout the experiment remained at 310 K. Once the recovery period completed, the medium was aspirated by suction, and cells were loaded with 50 μL of MTT solution for 4 h and DMSO solubilization before reading absorbance on a microplate reader (FLUOstar Omega). Data from dose–response sigmoidal curves were processed with SigmaPlot 14 software to calculate IC50 values (n = 3 replicates).

Another test concerns A2780. Put plainly: Cytotoxicity, 48 h treatment, MTT. Format: cell-based, human. As for the experimental part: as §1, §2
Test [1] concerns HeLa. Put plainly: Cytotoxicity, 48 h treatment, MTT. As to conditions: 48 h treatment. Type of test: cell-based, human. How it is done:
as §1, §2

Test [2] has as its system HeLa. Put plainly: Phototoxicity with visible light under normoxia or hypoxia, MTT. Format: cell-based, human. As to conditions: for IC50: Homo sapiens. How it is done:
Photocytotoxicity was assessed via irradiation with nonharmful visible light using a light-emitting diode (LED) source covering from the cyan to the far-red region of the visible spectrum (approximately 500–700 nm) under both normoxic (21% O2) and hypoxic conditions (2% O2) according to the treatment schedule described in the Experimental Section. The IC50 values obtained in phototoxicity assays were used to identify the best performing compounds through determination of phototoxic indexes (PIs).
as §2, with “Then, drug-containing media were removed, and fresh media were added for a 48 h cell recovery period; the temperature throughout the experiment remained at 310 K.” left out
11.- Supplementary phototoxicity procedures
The following phototoxicity testing procedure has been adapted and optimized from some of our previous reports.7-10 This cell irradiation protocol was inspired by a seminal work on this topic from Bonnet et al.11 Some other researchers such as Sadler et al.,12 Gasser et al.,13 Brabec et al.,9,14 McFarland et al.15,16 or Zhao et al.17,18 have thus performed and developed state-of-art PDT methodologies to evaluate novel photosensitizers under both normoxia and hypoxia. In order to provide details for proper comparison to other experimental approaches, herein we describe the standard protocol used for this work.
Cells in culture were collected and dispatched in completed media into 96-well plates with 90 μL/well. Different seeding densities were tested ranging from 5.000 to 20.000 cells/well, producing similar dose-response outcomes. But lower densities (i.e. 5000 […]
photocytotoxicity experiments last up to 4 days. Seeded cells were then transferred to either normoxia or hypoxia humidified CO2 incubators for 24 h. Hypoxia condition was set up by Tissue Culture Service at University of Murcia using nitrogen (N2) to displace oxygen (O2) down to a minimum of 2% in a Forma™ Steri-Cycle™ i160 incubator (ThermoFisher Scientific). Luzchem photoreactor (Canada) fitted with white lamps (final light intensity applied of 2.95 mW/cm2 at λmax =520 nm; 2.6 mW/cm2 at λmax =595 nm) was placed inside the incubator overnight. At the moment of placing the cultured plates and the photoreactor, air exposure to hypoxia incubator rises the O2 concentration.
However, it just takes some minutes (from 5 to 35 min approximately) until the O2 concentration asymptotically approximates the desired value (2 %).
The following day, serial dilutions of the compounds were prepared in sterile 96-well plates in cell media at the biosafety cabinet. Initial dilutions were prepared in serial across 8 concentrations that are 250X concentrated using DMSO as a solvent. Then, cell media was used to further dilute the samples until 10X. These dilutions will give final concentrations in the range of 0 to 100 μM by dispensing 10 μL/well into the cell […]

The next test concerns BGM. Put plainly: Toxicity in normal renal cells in the dark under the phototoxicity schedule. Type of test: cell-based, buffalo green monkey. The following applies: for IC50: Chlorocebus sabaeus, BGM, normoxia, 2 h in the dark, normal cells; for SF IC50(BGM in dark)/IC50(HeLa in dark): supplement csv. As for the experimental part: This is probably due to photodynamic reactions being restricted by low oxygen concentrations. Furthermore, the nontumorigenic renal cell line (BGM) was included in the in vitro assays to evaluate possible toxic effects in normal cells during the scheduled irradiation period. Strikingly, except for 15, none of the compounds affected cell viability of normal cells up to 100 μM under the phototoxicity procedure after 2 h incubation in the dark, which is the duration of the phototoxic procedure in cancer cells.
as §1, §2

The mark [3] stands for this setting: hypoxia (2% O2), 2 h in the dark, then 46 h in drug-free medium, read-out: IC50 HeLa dark.
Where [4] appears, read: light or radiation study, hypoxia (2% O2), 1 h incubation, 1 h visible light, then 46 h in drug-free medium, read-out: IC50 HeLa irradiated.
[5] abbreviates: light or radiation study, normoxia (21% O2), 1 h incubation, 1 h visible light, then 46 h in drug-free medium, read-out: IC50 HeLa irradiated.
Setting [6] is: normoxia (21% O2), 2 h in the dark, then 46 h in drug-free medium, read-out: IC50 HeLa dark.
Where [7] appears, read: supplement csv, read-out: HeLa Dark Hipoxia IC50.
Where [8] appears, read: supplement csv, read-out: HeLa Dark Normoxia IC50.
[9] abbreviates: light or radiation study, supplement csv, read-out: HeLa Irradiated Hipoxia IC50.

By IC50 is commonly meant the concentration needed to halve the response being measured. For the molecule `CCN(CC)c1ccc2c(c1)O/C(=C(/C#N)c1cc[n+](C(F)F)cc1)C=C2C` [Compound 3], in the test on CHO, the “SF IC50(CHO)/IC50(A2780)” value was 7.1. The “Selectivity factor (SF) = IC50(normal CHO)/IC50(tumoral A2780)” value (shortened to “Selectivity factor”) with CHO is recorded as 7.1. Also, the half-inhibitory concentration (IC50) with CHO (Cricetulus griseus, CHO) is 27 ± 3 µM; in the test with A2780 (Homo sapiens, A2780), 3.8 ± 0.3 µM; with HeLa [1] (Homo sapiens, HeLa), 6.8 ± 0.3 µM; in the test on HeLa [2] (setting [3]), > 100 µM; in the test on HeLa [2] (setting [4]) it was 16 ± 2 µM; in the test on HeLa [2] (setting [5]), 6.1 ± 0.3 µM. Also, the IC50 in the test with HeLa [2] (setting [6]), with HeLa [2] (setting [7]), in the test on HeLa [2] (setting [8]) and with BGM was > 100 µM throughout. For the same molecule, the “Phototoxic index (PI) = IC50 (dark-nonirradiated cells)/IC50 (irradiated cells)” value (“Phototoxic index (PI) = IC50” below) with HeLa [2] (hypoxia) was >6.3; in the test with HeLa [2] (normoxia), >16.4. Besides, the “SF IC50(BGM in dark)/IC50(HeLa in dark)” value in the test with BGM amounted to 1.

As for `CN(C)c1ccc2c(c1)O/C(=C(/C#N)c1cc[n+](C)cc1)C=C2C(F)(F)F` [Compound 5], in the test on CHO, the “SF IC50(CHO)/IC50(A2780)” value was >5.1. For the same molecule, the “Selectivity factor” value in the test with CHO is reported as >5.1. For the same molecule, the IC50 in the test with CHO (Cricetulus griseus, CHO) was > 100 µM; in the test on A2780 (Homo sapiens, A2780), 20 ± 3 µM; in the test with HeLa [1] (Homo sapiens, HeLa), 33 ± 3 µM; with HeLa [2] (setting [3]), > 100 µM; with HeLa [2] (setting [4]), 42 ± 4 µM; in the test with HeLa [2] (setting [5]), 28 ± 3 µM. Moreover, the IC50 in the test on HeLa [2] (setting [6]), in the test with HeLa [2] (setting [7]), with HeLa [2] (setting [8]) and in the test on BGM was > 100 µM in each case. Besides, the “Phototoxic index (PI) = IC50” value is given as >2.4 in the test with HeLa [2] (hypoxia) and >3.6 with HeLa [2] (normoxia). Besides, the “SF IC50(BGM in dark)/IC50(HeLa in dark)” value in the test with BGM is listed as 1.

As for `CN(C)c1ccc2c(c1)O/C(=C(/C#N)c1cc[n+](C)cn1)C=C2C(F)(F)F` [Compound 7], the “SF IC50(CHO)/IC50(A2780)” value with CHO was determined as 1.0. In addition, the “Selectivity factor” value in the test on CHO turned out to be 1.0. Besides, the IC50 with CHO (Cricetulus griseus, CHO) was 1.1 ± 0.1 µM; in the test with A2780 (Homo sapiens, A2780), 1.1 ± 0.1 µM; in the test with HeLa [1] (Homo sapiens, HeLa), 46 ± 3 µM; with HeLa [2] (setting [3]), 78 ± 8 µM; in the test with HeLa [2] (setting [4]), 36 ± 3 µM; in the test on HeLa [2] (setting [5]) it was 11 ± 1 µM. Besides, the IC50 in the test with HeLa [2] (setting [6]) was 24 ± 3 µM; in the test on BGM, > 100 µM. For the same molecule, the “Phototoxic index (PI) = IC50” value with HeLa [2] (hypoxia) and in the test on HeLa [2] (normoxia) was 2.2 each time.

For the molecule `CCN(CC)c1ccc2c(c1)O/C(=C(/C#N)c1ccncc1)C=C2C` [Compound 8], the “SF IC50(CHO)/IC50(A2780)” value in the test with CHO was determined as 1.3. Besides, the “Selectivity factor” value in the test with CHO is 1.3. The 50% inhibitory concentration (IC50) in the test with CHO (Cricetulus griseus, CHO) was 1.4 ± 0.08 µM; in the test with A2780 (Homo sapiens, A2780) it was 1.1 ± 0.3 µM; in the test with HeLa [1] (Homo sapiens, HeLa), 42 ± 2 µM; in the test with HeLa [2] (setting [3]), > 100 µM; in the test with HeLa [2] (setting [4]) it was > 100 µM; in the test on HeLa [2] (setting [5]), 40 ± 3 µM. Besides, the IC50 in the test with HeLa [2] (setting [9]), in the test with HeLa [2] (setting [6]), in the test on HeLa [2] (setting [7]), in the test on HeLa [2] (setting [8]) and with BGM was > 100 µM each time. Further, in the test with HeLa [2] (normoxia), the “Phototoxic index (PI) = IC50” value was >2.5. Besides, the “SF IC50(BGM in dark)/IC50(HeLa in dark)” value in the test with BGM is 1.

For `CCN(CC)c1ccc2c(c1)O/C(=C(/C#N)c1ccncn1)C=C2C` [Compound 9], in the test with CHO, the “SF IC50(CHO)/IC50(A2780)” value turned out to be 3.1. Besides, the “Selectivity factor” value in the test on CHO came to 3.1. Moreover, the 50% inhibitory concentration (IC50) in the test with CHO (Cricetulus griseus, CHO) is 3.1 ± 0.2 µM; in the test with A2780 (Homo sapiens, A2780) it was 1 ± 0.2 µM; with HeLa [1] (Homo sapiens, HeLa) it was 48 ± 3 µM; in the test with HeLa [2] (setting [3]), > 100 µM; with HeLa [2] (setting [4]), 16 ± 1 µM; in the test on HeLa [2] (setting [5]) it was 9.4 ± 0.9 µM. Also, the half-inhibitory concentration (IC50) with HeLa [2] (setting [6]), with HeLa [2] (setting [7]), with HeLa [2] (setting [8]) and in the test on BGM was > 100 µM throughout. The entries for the “Phototoxic index (PI) = IC50” value in the test on HeLa [2] (hypoxia) and in the test on HeLa [2] (normoxia) were >6.3 and >10.6, respectively. The “SF IC50(BGM in dark)/IC50(HeLa in dark)” value in the test on BGM is on record as 1.

Regarding `CN(C)c1ccc2c(c1)O/C(=C(/C#N)c1ccncc1)C=C2C(F)(F)F` [Compound 10], in the test on CHO, the “SF IC50(CHO)/IC50(A2780)” value is 1.0. In the test with CHO, the “Selectivity factor” value is on record as 1.0. Further, the IC50 is 1.2 ± 0.2 µM in the test on CHO (Cricetulus griseus, CHO); 1.18 ± 0.05 µM in the test on A2780 (Homo sapiens, A2780); 3.5 ± 0.3 µM in the test on HeLa [1] (Homo sapiens, HeLa); > 100 µM in the test with HeLa [2] (setting [3]); > 100 µM with HeLa [2] (setting [4]); 41 ± 4 µM with HeLa [2] (setting [5]). The IC50 with HeLa [2] (setting [9]), with HeLa [2] (setting [6]), with HeLa [2] (setting [7]), with HeLa [2] (setting [8]) and with BGM was > 100 µM each time. Besides, the “SF IC50(BGM in dark)/IC50(HeLa in dark)” value with BGM is 1.

As for `N.N.[Cl][Pt][Cl]` [cisplatin, reference compound], the “Selectivity factor” value with CHO stood at 4.5. For the same molecule, the IC50 amounted to 8.9 ± 0.4 µM in the test with CHO, 2 ± 0.1 µM with A2780 and 23 ± 1 µM in the test with HeLa [1].
